US12139505B2, “Compositions useful in therapy of autophagy-related pathologies, and methods of making and using the same” (The University of Toledo, priority 2017, dated 2024)
“Also recorded” adds a separate entry of the source.

Key:
[1] = tested on: SH-SY5Y cells; assay: Cell viability, MTS assay; format: cell-based, human; conditions: for average cell viability: 24 hours; for toxicity to neuroblastoma cells: 0.1 to 1 μM
Protocol: Synthesized compounds were added to a 3-dram screw capped vial, followed by DMSO (ca. 5 mL) to make a 10 mM stock solution. The test stock solution was made and used on the same day. 100 μL of the 10 mM stock solution was diluted into 900 μL of DMSO (1:9 dilution) to make 1 mM stock solution. 100 μL of the 1 mM stock solution was diluted into 900 μL of DMSO (1:9 dilution) to make a 100 μM solution. 100 μL of the 100 μM stock solution was diluted into 900 µL of DMSO (1:9 dilution) to make a 10 μM stock solution. The test solutions were prepared by using the dilution ratio of 10 μL stock solutions into 990 μL (1:99 dilution) of Complete Culture Media (CCM) to afford drug solution (1% DMSO) from 0.1 to 100 μM. For positive control: 10 mg/mL of TritonX-100 is diluted in CCM. For negative control: 1 μL of DMSO is dissolved in every 100 μL of CCM.
Cells were grown in bulk in 100 mm petri dishes. On the day of use, the cell culture media was removed from the dish. SH-SY5Y cells were washed with PBS, then 0.25% Trypsin/EDTA was used to aid in detaching the cells, CCM was then added to neutralize the Trypsin/EDTA and wash the cells from the dish. Washed cells are collected in a centrifuge tube for concentration. After centrifugation at 2000 RPM for 5 minutes, the cells were re-suspended in CCM. The final concentration of cells was 5×10^3 per 100 μL The 5000 cells/100 μL solution was seeded into a clear, flat bottomed, 96-well microliter plate and incubated for 24 hours at 37° C. in 5% CO2. After 24 hours, the media was removed and replaced by 100 μL CCM containing the drug/positive/negative control and was incubated at 37° C. in a 5% CO2 for 24 hours. After this incubation period, 20 μL of MTS solution was added to each well via a multichannel pipette. The plates were shaken by hand to thoroughly mix the MTS solution into the media and incubated at 37° C. in a 5% CO2 for 4 hours. The absorbance was read at 490 nm using the Synergy Neo microplate reader.

[2] = tested on: SH-SY5Y cells; assay: Western blot for LC3-II (autophagy induction with bafilomycin-A1); format: cell-based, human
Protocol: (FIG. 35B). […] In a dose dependent manner with a maximum of 6 μM.
2-n-hexyl-LKE-P drug solutions in CCM from 0.1 to 100 μM were prepared as above for the viability assay except that the drug solutions contained 10 nM bafilomycin A1. For positive control: 50 nM rapamycin in CCM containing 10 nM bafilomycin A1 was used. For negative control: 1 μL of DMSO is dissolved in every 100 μL of CCM containing 10 nM bafilomycin A1. When SH-SY5Y cells were 85-90% confluent, 300,000 cells per well were seeded into 12-well plates. Cells were exposed to four concentrations of 2-n-hexyl-LKE-P, positive control and negative control for 4 hours at 37° C. in 5% CO2 in air atmosphere. Subsequently, the cells were washed with PBS, next, 0.25% Trypsin/EDTA was used to aid in detaching the cells and CCM was then added to neutralize the Trypsin/EDTA and wash the cells from the dish. Washed cells were collected in a centrifuge tube for concentration. After centrifugation at 2000 RPM for 5 minutes, the cells were re-suspended in PBS and re-centrifuged to pellets. The supernatant was then discarded and the cell pellets were frozen in −20° C. freezer. 50 μL lysis buffer (RIPA buffer plus, 1 mM sodiumorthovanadate, 5 mM β-glycerophosphate and 1:200 mammalian protease inhibitor cocktail) was added to the cells and the cells were re-suspended in the lysis buffer. […] The membranes were then ready for imaging.

[3] = tested on: PINK1^B9 flies; assay: Fly sleep behavior; format: in vivo, Drosophila melanogaster
Protocol: 2-n-hexyl-LKE-P was dissolved in DMSO and supplemented into a warm solution of minimal media (5% sucrose, 2% agarose and water, 60° C.) to a final concentration of 10, 100 and 1000 μM. Freshly eclosed adult flies were transferred to minimal media containing the drug for one day followed by the experiments. Flies were transferred individually, under CO2 anesthesia, into 5 mm×65 mm (outside diameter×length) polycarbonate recording tubes with food on one end and yarn plugs on the other. Sleep parameters were continuously evaluated using the TriKinetics Drosophila activity monitoring system. Sleep is defined as 5 min or more of continuous inactivity, the minimum amount of time to qualify as a single sleep bout. Zeitgeber time (ZT) 0 is defined as the time of lights on, and ZT12 is defined as the time of lights off. Mobility (activity) was also monitored and data tabulated based on the number of beam counts, and diurnal variations were calculated. The sleep and mobility data were collected and analyzed.

CCCCCCC1=C(P(=O)(O)O)N[C@H](C(=O)OCC)CS1 [2-n-hexyl-LKE-P]
concentration at which toxicity begins to show [1]: 10 µM
average cell viability ([1]; 10 μM): 83%
average cell viability ([1]; 100 μM): 63%
toxicity to neuroblastoma cells [1]: not toxic
toxicity to neuroblastoma cells ([1]; listed as 2-n-heyxl-LKE-P): no toxicity
autophagy stimulation (LC3-I, LC3-II) ([2]; in the presence of bafilomycin-A1): stimulates autophagy in a dose dependent manner; also recorded: able to stimulate autophagy
concentration of maximum autophagy stimulation ([2]; in the presence of bafilomycin-A1, 0.1 to 10 μM tested): 6 µM
sleep of treated wild-type flies versus vehicle-treated wild-type flies ([3]; Day 1 or Day 8): No differences were observed
daytime sleep of PINK1^B9 flies ([3]; day 1, 1000 μM): did not change the sleeping pattern and the daytime sleeping time; also recorded: did not show any changes
daytime sleep of PINK1^B9 flies ([3]; day 8 (one week), 1000 μM): decreased the daytime sleeping time; also recorded: reversal of excessive daytime sleep
